# In US20240050033A1, “PERFUSION DEVICE FOR EVALUATING BLOOD PARAMETERS” (SEDICIDODICI S.R.L., priority 2020, published 2024):
# What was measured:
# [1] = test system: platelets; assay: ex-vivo dynamic evaluation of platelet aggregate formation in a whole-blood sample flowing through a perfusion chamber (fluorescence imaging); type: cell-based, human; conditions: mean value, blood of subjects under the therapy; 8-bit acquisition system
# Excerpt: (§1) The present invention firstly relates to a method for the dynamic “ex-vivo” evaluation of the coagulation process in a patient's blood sample, characterized in that such a method comprises the simultaneous determination on the same blood sample of both the time, quantity and speed of platelet aggregate formation and of fibrin formation time, quantity and speed.
# According to some embodiments, the method of the invention comprises the following steps: • a) providing a whole-blood sample taken from a subject and added with an anti-coagulant substance; • b) treating the blood sample of step a) with a solution consisting of fluorescent probes for marking platelets and fibrin capable of binding more or less specifically to platelets and fibrin and emitting fluorescent light on two different emission frequencies and of a recalcification solution of the blood sample. […]
# [2] = test system: fibrin; assay: ex-vivo dynamic evaluation of fibrin formation in a whole-blood sample flowing through a perfusion chamber (fluorescence imaging); type: cell-based, human; conditions: mean value, blood of subjects under the therapy; 8-bit acquisition system
# Excerpt: as §1
# According to some embodiments, the method of the invention comprises the following steps: • a) providing a whole-blood sample taken from a subject and added with an anti-coagulant substance; • b) treating the blood sample of step a) with a solution consisting of fluorescent probes for marking platelets and fibrin capable of binding more or less specifically to platelets and fibrin and emitting fluorescent light on two different emission frequencies and of a recalcification solution of the blood sample. The two aforesaid solutions can also be combined in a single solution or single reagent; • c) introducing said recalcified blood sample into an analytical device having at least one perfusion chamber, in which at least one wall consists of a transparent material comprising a cytoadhesive substance, the blood sample being made to flow into the perfusion chamber in known and measurable flow conditions; • d) during the blood flow in the perfusion chamber, alternately acquiring at least two series of fluorescence images, so that at least one series of fluorescence images is acquired at an emission wavelength characteristic of the fluorescent probe for platelets and at least one other series of fluorescence images is acquired at another emission wavelength characteristic of the fluorescent probe for fibrin; • e) binarizing the pixels of the acquired images for the platelets and for the fibrin, so as to generate a first curve of area covered by illuminated pixels vs. time (t) for the formation of a platelet aggregate and a second curve of area covered by illuminated pixels vs. time for the fibrin formation; • f) generating a first curve of average fluorescence intensity vs. time for the formation of the platelet aggregate and a second curve of average fluorescence intensity vs. time for the fibrin formation; • in which the method comprises at least one of the following steps: • g) generating a first integrated density curve defined as the product of area and fluorescence intensity vs. time for the formation of the platelet aggregate and a second integrated density curve defined as the product of area and fluorescence intensity vs. time for the fibrin formation; • h) generating a curve of particle number vs. time, in which the number of particles is given by the number of platelet aggregates consisting of more than 2 illuminated pixels; • i) generating a curve of particle size vs. time, in which the particle size is given by the average size of the platelet aggregates consisting of more than 2 illuminated pixels; • j) generating values of maximum slope, defined as the relative maximum points of the first derivative function calculated for the curves of the parameter obtained in said at least one step e), f), g), h) and i); • k) generating values of maximum acceleration, defined as the relative maximum points of the second derivative function calculated for the curves of the parameter obtained in said at least one step e), f), g), h) and i); • l) generating values of F/P ratio, defined as the ratio of the AUCs of fibrin to the AUCs of the platelets of the parameter obtained in said at least one step e), f) and g); • the method further comprising the steps of: • m) generating a lag time value representing the fibrin formation time defined as the time corresponding to the first occurrence of five consecutive images in which the value of the measured area related to fibrin is >1% of the maximum peak value of the curve; • n) generating AUC (Area Under the Curve) values given by the area under the curve of each parameter obtained in steps e), f), g), h) and i). […]
smiles,measurement,setting,value
"CC(=O)Oc1ccccc1C(=O)O [ASA, acetylsalicylic acid]",Platelets AUC Area (area under the curve of the area curve),[1],3.4 ×10^7
same,Platelets AUC ID (area under the curve of the integrated density curve),[1],3.0 ×10^9
same,Platelets AUC MGV (area under the curve of the fluorescence intensity curve),[1],2.0 ×10^4
same,F/P Area (AUC Area ratio of fibrin to platelets),[2],1.0
same,F/P ID (AUC ID ratio of fibrin to platelets),[2],2.2
same,F/P MGV (AUC MGV ratio of fibrin to platelets),[2],1.2
same,Fibrin AUC Area (area under the curve of the area curve),[2],3.0 ×10^7
same,Fibrin AUC ID (area under the curve of the integrated density curve),[2],4.3 ×10^9
same,Fibrin AUC MGV (area under the curve of the fluorescence intensity curve),[2],2.0 ×10^4
same,Lag Time (fibrin formation time),[2],267.5 s
